Columns and labels:
[1] = test system: intraocular inflammation by Lipopoly saccharide from E. Coli; assay: Effect of eye drops on endotoxin intraocular inflammation by Lipopoly saccharide from E. Coli; type: in vivo, white male house rabbit; details: 20 hours after LPS
Protocol: Effect on intraocular inflammation by Lipopoly saccharide from E. Coli
The eye drops of the compound (3), i.e., anthranylic acid amide of 8-(2-naphthyl)-5,6-trans-5,6-methano-7E-octenoic acid was prepared by formulating 3.8 mg of the compound (3) in 0.1 ml of ethanol followed by adding 0.9 ml of teel oil to obtain eye drops containing 0.38% of compound (3). The pH was 6.8.
The eye drops of the compound (7), i.e., 3,4-dimethoxy cinnamic acid ester of 8-(2-naphthyl)-5,6-trans-5,6-methano-7E-octene-1-ol were prepared by dissolving 5.3 mg of the compound (7) in 0.1 ml of ethanol upon heating at 70° C. to 80° C. followed by adding 0.9 ml of teel oil to obtain eye drops containing 0.53% of compound (7). The pH was 6.8.
Into one eye of a white male house rabbit having a body weight of 1.5 to 2.0 kg, were dropped the eye drops of the compounds (3) and (7), at 6 hours, 4 hours, and 1 hour before the experiment, and into the other eye, control eye drops containing 0.1 ml ethanol and 0.9 ml teel oil were dropped in the same manner.
To the vitreous body, 5 μg of lipopoly saccharide from E. coli (commercially available from Sigma) in 50 μl of physiolological saline was dropped. After 20 hours, the aqueous humor was taken and the protein content of the aqueous humor was determined by a Bio-rad assay method and the leucocyte in the aqueous humor was determined by a Neubauer Chamber. The LTB4 in the aqueous humor was determined by the HPLC and RIA methods.

LTB4 production [2] = assay: LTB4 production inhibition effect on human blood (Calcium ionophore-stimulated whole blood); type: cell-based; details: 10^-5 M Calcium ionophore, Control 20
Protocol: LTB4 production inhibition effect on human blood
A 10^-5 M amount of Calcium ionophore was added to human whole blood, followed by adding the compounds listed in Table 2 to evaluate the inhibition effect of these compounds on LTB4 production. The evaluation was carried out in a manner described in Gresele, P., Arnoult, J., Coene, M. C., Deckmyn, H., and Vermylen, J.: Leukotriene B4 production by stimulated whole blood: Comparative studies with isolated polymorphonuclear cells, Biochem. Biophys. Res. Commun. 137: 334-342, 1986.

LTB4 production [3] = assay: LTB4 production inhibition effect on iris of normal house rabbit; type: cell-based; details: Oryctolagus cuniculus, n=4; for inhibition at 100 µM: 10^-4 M; for inhibition at 10 µM: 10^-5 M; for inhibition at 1 µM: 10^-6 M; for inhibition at 0.1 µM: 10^-7 M
Protocol: LTB4 production inhibition effect on iris of normal house rabbit
The iris of a normal house rabbit was enucleated, dipped in 1 cc of Tylord solution for control and 1 cc of Tylord solution containing a certain level of medicament, and after 5 minutes, the Tylord solution was passed through a SEP-pack, the portion containing leucotriene was separated by HPLC, and the LTB4 amount was measured by radioimmunoassay. (n=4)

SMILES: COC(=O)c1ccccc1NC(=O)CCC[C@H]1C[C@@H]1/C=C/c1ccc2ccccc2c1 (relative stereo) [Compound (3), Methyl anthranylate amide of 8-(2-naphthyl)-5,6-trans-5,6-methano-7E-octenoic acid]
- Leucocyle in aqueous ([1]; eye drops 0.38% at 6, 4 and 1 hour before, Control 10.1 × 10^5): 6.0 × 10^5 cells/ml
- Aqueous protein ([1]; eye drops 0.38% at 6, 4 and 1 hour before, Control 30): 40 mg/mL
- LTB4 in aqueous ([1]; eye drops 0.38% at 6, 4 and 1 hour before, Control 150): 7.5 pg/mL
- LTB4 production Amount (LTB4 production [2]; 10^-5 M): 11 µg/mL
- LTB4 production Amount (LTB4 production [2]; 10^-6 M): 12 µg/mL
- LTB4 production Amount (LTB4 production [2]; 10^-7 M): 15 µg/mL
- inhibition at 100 µM (LTB4 production [3]): 95%
- inhibition at 10 µM (LTB4 production [3]): 95%
- inhibition at 1 µM (LTB4 production [3]): 89%
- inhibition at 0.1 µM (LTB4 production [3]): 67%

SMILES: COc1ccc(/C=C/C(=O)OCCCC[C@H]2C[C@@H]2/C=C/c2ccc3ccccc3c2)cc1OC (relative stereo) [Compound (7), 3,4-Dimethoxycinnamic acid ester of 8-(2-naphthyl)-5,6-trans-5,6-methano-7 E-octene-1-ol]
- Leucocyle in aqueous ([1]; eye drops 0.53% at 6, 4 and 1 hour before, Control 5.5 × 10^5): 7.5 × 10^5 cells/ml
- Aqueous protein ([1]; eye drops 0.53% at 6, 4 and 1 hour before, Control 33): 41 mg/mL
- LTB4 in aqueous ([1]; eye drops 0.53% at 6, 4 and 1 hour before, Control 320): 170 pg/mL
- LTB4 production Amount (LTB4 production [2]; 10^-5 M): 12 µg/mL
- LTB4 production Amount (LTB4 production [2]; 10^-6 M): 12 µg/mL
- LTB4 production Amount (LTB4 production [2]; 10^-7 M): 13 µg/mL
- inhibition at 100 µM (LTB4 production [3]): 92%
- inhibition at 10 µM (LTB4 production [3]): 88%
- inhibition at 1 µM (LTB4 production [3]): 80%
- inhibition at 0.1 µM (LTB4 production [3]): 20%

SMILES: O=C(O)CCC[C@H]1C[C@@H]1/C=C/c1ccc2ccccc2c1 (relative stereo) [Reference compound, reference compound]
- inhibition at 100 µM (LTB4 production [3]): 35%
- inhibition at 10 µM (LTB4 production [3]): 0%

Source: patent US4990650A, “Aromatic derivative and preparation method thereof” (Teijin Limited, priority 1986, dated 1991)
